# US20200079766A1, “MONOCYCLIC OGA INHIBITOR COMPOUNDS” (Janssen Pharmaceutica NV, priority 2016, published 2020)
# Columns and labels:
# [1] = molecular target: T1, recombinant human Meningioma Expressed Antigen 5 (MGEA5), also referred to as O-GlcNAcase (OGA) (Homo sapiens, UniProt O60502); assay: OGA biochemical assay: inhibition of FM-GlcNAc hydrolysis, fluorescence; protocol A (10 nM OGA, 1 h) or protocol B (2 nM OGA, 6 h); details: Enzymatic protocol B (2 nM OGA, 6 h); for IC50: read-out: Enzymatic hOGA, pIC50 (converted)
# T1 construct: Full length OGA enzyme was purchased at OriGene (cat # TP322411); purchased OriGene TP322411
# T1 sequence (O60502 1-916): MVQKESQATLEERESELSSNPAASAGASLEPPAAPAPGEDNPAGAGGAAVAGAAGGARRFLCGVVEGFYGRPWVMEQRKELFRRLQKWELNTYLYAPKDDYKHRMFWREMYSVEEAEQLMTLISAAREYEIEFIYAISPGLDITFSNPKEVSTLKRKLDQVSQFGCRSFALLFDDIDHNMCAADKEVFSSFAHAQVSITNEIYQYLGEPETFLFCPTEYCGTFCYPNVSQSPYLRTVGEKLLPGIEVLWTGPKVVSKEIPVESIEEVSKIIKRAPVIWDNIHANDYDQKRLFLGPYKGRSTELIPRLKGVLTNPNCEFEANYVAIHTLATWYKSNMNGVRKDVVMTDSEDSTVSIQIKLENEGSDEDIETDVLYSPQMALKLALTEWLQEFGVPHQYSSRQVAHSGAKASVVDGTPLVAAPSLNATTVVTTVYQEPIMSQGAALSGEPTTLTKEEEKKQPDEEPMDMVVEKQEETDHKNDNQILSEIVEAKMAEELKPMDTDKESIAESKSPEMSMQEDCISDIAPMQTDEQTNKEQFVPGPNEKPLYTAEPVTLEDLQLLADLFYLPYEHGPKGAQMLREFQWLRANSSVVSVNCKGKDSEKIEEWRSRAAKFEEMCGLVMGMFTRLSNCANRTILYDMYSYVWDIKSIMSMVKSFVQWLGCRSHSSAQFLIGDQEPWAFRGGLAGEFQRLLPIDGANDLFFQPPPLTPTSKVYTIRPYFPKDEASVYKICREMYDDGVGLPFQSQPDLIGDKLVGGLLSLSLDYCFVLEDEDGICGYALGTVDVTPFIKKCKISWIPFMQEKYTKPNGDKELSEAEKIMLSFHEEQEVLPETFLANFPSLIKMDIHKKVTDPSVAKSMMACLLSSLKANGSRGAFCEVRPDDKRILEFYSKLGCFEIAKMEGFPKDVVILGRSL
# How it was run: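 Full-length human OGA in 200 mM citrate/phosphate pH 7.2 with 0.005% Tween-20, compound pre-incubated 60 min at RT, then 100 uM FM-GlcNAc (final); 10 nM enzyme for 1 h or 2 nM for 6 h at RT. Stopped with pH 11.0 carbonate; fluorescein read at ex 485/em 538 nm. IC50 and Hill coefficient from curve fit.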
# [2] = system: OGA in HEK293 cells inducible for P301L mutant human Tau (isoform 2N4R); assay: OGA cellular assay: immunocytochemical detection of O-GlcNAcylated proteins (CTD110.6 antibody) after 6 h incubation; assay type: cell-based; details: for Cellular Emax (%) / Emax: maximum = Thiamet G 200 uM; for Emax / EC50: Homo sapiens, HEK293, 6 h; for EC50: read-out: Cellular hOGA, pEC50 (converted)
# Description: HEK293 cells inducible for P301L mutant human Tau (isoform 2N4R) were established at Janssen. Thiamet-G was used for both plate validation (high control) and as reference compound (reference EC50 assay validation). OGA inhibition is evaluated through the immunocytochemical (ICC) detection of O-GlcNAcylated proteins by the use of a monoclonal antibody (CTD110.6; Cell Signaling, #9875) detecting O-GlcNAcylated residues as previoulsy described (Dorfmueller et al. 2010 Chemistry & biology, 17:1250). Inhibition of OGA will result in an increase of O-GlcNAcylated protein levels resulting in an increased signal in the experiment. Cell nuclei are stained with Hoechst to give a cell culture quality control and a rough estimate of immediate compounds toxicity, if any. ICC pictures are imaged with a Perkin Elmer Opera Phenix plate microscope and quantified with the provided software Perkin Elmer Harmony 4.1.
# Cells were propagated in DMEM high Glucose (Sigma, # D5796) following standard procedures. 2 days before the cell assay cells are split, counted and seeded in Poly-D-Lysine (PDL) coated 96-wells (Greiner, #655946) plate at a cell density of 12,000 cells per cm^2 (4,000 cells per well) in 100 μl of Assay Medium (Low Glucose medium is used to reduce basal levels of GlcNAcylation) (Park et al. 2014 The Journal of biological chemistry 289:13519). At the day of compound test medium from assay plates was removed and replenished with 90 μl of fresh Assay Medium. 10 μl of compounds at a 10 fold final concentration were added to the wells. Plates were centrifuged shortly before incubation in the cell incubator for 6 hours. DMSO concentration was set to 0.2%. Medium is discarded by applying vacuum. For staining of cells medium was removed and cells washed once with 100 μl D-PBS (Sigma, # D8537). From next step onwards unless other stated assay volume was always 50 μl and incubation was performed without agitation and at room temperature. Cells were fixed in 50 μl of a 4% paraformaldehyde (PFA, Alpha aesar, #043368) PBS solution for 15 minutes at room temperature. […] Before analysis samples were washed 2 times manually for 5 minutes in ICC base buffer.
# Imaging is performed using Perkin Elmer Phenix Opera using a water 20× objective and recording 9 fields per well. Intensity readout at 488 nm is used as a measure of O-GlcNAcylation level of total proteins in wells. To assess potential toxicity of compounds nuclei were counted using the Hoechst staining. IC50-values are calculated using parametric non-linear regression model fitting. As a maximum inhibition Thiamet G at a 200 uM concentration is present on each plate. In addition, a concentration response of Thiamet G is calculated on each plate.
Enzymatic Emax (%) [1] [%],Enzymatic hOGA; pIC50 [1],IC50 [1] [nM],Emax [1] [%],Compound,Cellular hOGA; pEC50 [2],Cellular Emax (%) [2] [%],Emax [2] [%],EC50 [2] [nM]
99.3,7.63,–,–,CC(=O)Nc1ncc(CN2CCC(Cc3ncc(F)cc3F)C2)s1 (stereo not drawn) [compound 75],7.11,104.1,–,–
100,7.77,–,–,CC(=O)Nc1ncc(CN2CCC(Cc3ccc(C)nn3)C2)s1 (stereo not drawn) [compound 90],6.83,73.7,–,–
103.7,–,2.88,–,"Cc1cc(CC2CCCN(C(C)c3ccc4sc(C)nc4c3)C2)cc(C)n1 (single isomer, unassigned) [compound 119]",7.38,107.3,–,–
–,–,427,97,Cc1cc(C[C@H]2CCN(C(C)c3ccc4nccnc4c3)C2)cc(C)n1 (mixture of isomers) [compound 100],–,–,23.1,> 1000
–,–,126,101,Cc1cc(C[C@H]2CCCN(Cc3ccc4sc(C)nc4c3)C2)cc(C)n1 [compound 145],–,–,39.4,> 1000
–,–,12,100,COc1cnc(C[C@H]2CCN(Cc3cnc(NC(C)=O)s3)C2)c(F)c1 [compound 48],–,–,83,66.1
–,–,58.9,101,Cc1cc(C[C@H]2CCN(C(C)c3ccc4sc(C)nc4c3)C2)cc(C)n1 (mixture of isomers) [compound 87],–,–,28.6,> 1000
–,–,11,102,Cc1cc(CC2CCCN(C(C)c3ccc4c(c3)OCO4)C2)cc(C)n1 (racemic) [compound 141],–,–,83.5,87.1
–,–,6.76,101,CC(=O)Nc1ncc(CN2CCCC(COc3cc(C)nc(C)c3)C2)s1 (stereo not drawn) [compound 20],–,–,111,6.31
101.5,8.24,–,–,CCc1cc(C[C@H]2CCN(Cc3cnc(NC(C)=O)s3)C2)cc(C)n1.Cl [compound 80],7.94,90,–,–
–,–,4.57,102,CC(=O)Nc1ncc(CN2CC[C@H](Cc3cc(C)nc(C)c3)C2)s1 [compound 112],–,–,118,17.8
–,–,4.9,102,Cc1cc(CC2CCCN(C(C)c3ccc4c(c3)OCCO4)C2)cc(C)n1 (racemic) [compound 142],–,–,100,60.3
–,–,20,103,CC(=O)Nc1ncc(CN2CC[C@H](Cc3cc(C)nc(F)c3)C2)s1 [compound 110],–,–,91.3,24.5
–,–,6.17,103,CC(=O)Nc1ncc(CN2CC[C@H](Cc3cc(C)c(C)cn3)C2)s1 [compound 69],–,–,101,74.1
101.2,7.71,–,–,CC(=O)Nc1ncc(CN2CC[C@H](Cc3ccc(C)nc3)C2)s1 [compound 61],7.22,96.3,–,–
–,–,2.82,102,CC(=O)Nc1ncc(CN2CCC[C@H](Cc3ccc(F)c(C)n3)C2)s1 [compound 129],–,–,101,20
–,–,1.82,101,"CC(=O)Nc1ncc(CN2CCC[C@H](Cc3cc(C)nc(C)n3)C2)s1 (single isomer, unassigned) [compound 25]",–,–,97.8,9.77
–,–,26.9,99.5,"CC(=O)Nc1ncc(CN2CCC[C@@H](Cc3cc(C)nc(C)n3)C2)s1 (single isomer, unassigned) [compound 26]",–,–,72.3,525
–,–,6.31,102,Cc1cc(CC2CCCN(C(C)c3ccc4scnc4c3)C2)cc(C)n1 (racemic) [compound 148],–,–,105,56.2
102.6,8.30,–,–,CC(=O)Nc1ncc(CN2CC[C@H](Cc3ccc(C)nc3C#N)C2)s1 [compound 84],7.43,81.9,–,–
–,–,102,102,Cc1cc(C[C@H]2CCCN(Cc3ccc4c(c3)OCCO4)C2)cc(C)n1 [compound 152],–,–,41.9,> 1000
–,–,8.51,102,CC(=O)Nc1ncc(CN2CCC[C@@H](Oc3cc(C)nc(C)c3)C2)s1 [compound 15],–,–,98.4,1230
–,–,26.3,100,CC(=O)Nc1ncc(CN2CCC(COc3cc(C)nc(C)c3)C2)s1 (stereo not drawn) [compound 89],–,–,72.4,81.3
–,–,12,99.6,CC(=O)Nc1ncc(CN2CC[C@H](Cc3ccc(C)nc3C)C2)s1 [compound 71],–,–,94.8,36.3
101.4,7.81,–,–,CC(=O)Nc1ncc(CN2CC[C@H](Cc3cc(C)ncc3C(F)(F)F)C2)s1 [compound 73],6.95,94,–,–
102.4,7.59,–,–,CC(=O)Nc1ncc(CN2CC[C@H](Cc3cc(C)nc(C(F)(F)F)c3)C2)s1 [compound 76],7.56,92.3,–,–
–,–,8.51,99.6,CCOc1cc(C[C@H]2CCN(Cc3cnc(NC(C)=O)s3)C2)cc(C)n1 [compound 41],–,–,90.7,20.9
–,–,72.4,102,CC(=O)Nc1ncc(CN2CCC(OCc3cc(C)nc(C)c3)C2)s1 (stereo not drawn) [compound 81],–,–,51.7,501
–,–,309,98.4,Cc1cc(C[C@H]2CCN(C(C)c3ccc4c(c3)OCO4)C2)cc(C)n1 (mixture of isomers) [compound 93],–,–,37.7,> 1000
–,–,46.8,100,"Cc1cc(CC2CCCN(C(C)c3ccc4sc(C)nc4c3)C2)cc(C)n1 (single isomer, unassigned) [compound 118]",6.24,62.2,–,–
